Data published in patent publication US4570006A, “Amidine compound, process for producing same and anti-complement agent comprising same” (Torii & Co. Ltd., priority 1981, dated 1986).

Legend:
Cls = target: T1, Cls (Homo sapiens, UniProt P09871); experiment: Anti-Cl esterase activity, Cls (ATEE hydrolysis); format: biochemical; settings: hydrolysis of ATEE; read-out: Anti-Cl activity, Cls (50% inhibition)
T1 sequence (P09871 438-688 limits assumed): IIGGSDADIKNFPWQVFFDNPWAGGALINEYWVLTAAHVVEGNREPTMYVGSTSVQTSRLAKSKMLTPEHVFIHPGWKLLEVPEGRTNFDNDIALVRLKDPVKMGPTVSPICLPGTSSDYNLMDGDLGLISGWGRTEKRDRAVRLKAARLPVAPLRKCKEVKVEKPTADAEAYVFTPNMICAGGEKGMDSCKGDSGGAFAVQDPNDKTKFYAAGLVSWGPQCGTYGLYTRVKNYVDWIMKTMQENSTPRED
T1 sequence (P09871 16-437 limits assumed): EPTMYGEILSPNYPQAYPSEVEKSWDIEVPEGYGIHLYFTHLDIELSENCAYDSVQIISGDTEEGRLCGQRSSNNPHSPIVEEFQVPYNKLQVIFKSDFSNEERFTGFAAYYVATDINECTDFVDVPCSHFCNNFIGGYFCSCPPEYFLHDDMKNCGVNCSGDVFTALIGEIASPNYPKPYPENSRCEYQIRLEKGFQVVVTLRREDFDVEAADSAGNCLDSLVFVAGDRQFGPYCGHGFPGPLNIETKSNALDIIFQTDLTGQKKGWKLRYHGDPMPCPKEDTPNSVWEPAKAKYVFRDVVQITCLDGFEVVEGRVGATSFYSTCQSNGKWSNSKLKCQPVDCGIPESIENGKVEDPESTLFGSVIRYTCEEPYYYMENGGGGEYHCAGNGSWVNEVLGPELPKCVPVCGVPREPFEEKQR
Procedure: The anti-Cl esterase (Clr, Cls) activity was determined according to the method of Okamura et al. [K. Okamura, M. Muramatsu and B. Fujii, Biochem. Biophys. […] The figures in Table 2 have the following meanings:
Cls: Molar concentration of the test compound which inhibits 50% of the ability of Cls to hydrolyse ATEE (acetyltyrosin ethyl ester).

Plasmin = Plasmin (Homo sapiens, UniProt P00747); experiment: Anti-plasmin activity (inhibition of TAME hydrolysis); format: biochemical; settings: read-out: ID50, plasmin
Outline: (§1)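 Inhibition of enzymatic TAME (tosylarginine methyl ester) hydrolysis, per Muramatsu et al. Values are ID50, the molar concentration of compound inhibiting 50% of each enzyme's TAME-hydrolysing activity.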

Clr = target: T2, Clr (Homo sapiens, UniProt P00736); experiment: Anti-Cl esterase activity, Clr (AAME hydrolysis); format: biochemical; settings: hydrolysis of AAME; read-out: Anti-Cl activity, Clr (ID50)
T2 sequence (P00736 464-705 limits assumed): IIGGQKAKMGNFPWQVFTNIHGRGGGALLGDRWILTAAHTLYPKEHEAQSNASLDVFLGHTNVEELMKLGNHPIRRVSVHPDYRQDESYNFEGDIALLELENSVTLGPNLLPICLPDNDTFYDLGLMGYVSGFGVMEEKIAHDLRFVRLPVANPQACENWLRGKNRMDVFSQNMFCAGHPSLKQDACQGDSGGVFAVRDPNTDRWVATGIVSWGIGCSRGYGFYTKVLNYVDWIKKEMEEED
T2 sequence (P00736 18-463 limits assumed): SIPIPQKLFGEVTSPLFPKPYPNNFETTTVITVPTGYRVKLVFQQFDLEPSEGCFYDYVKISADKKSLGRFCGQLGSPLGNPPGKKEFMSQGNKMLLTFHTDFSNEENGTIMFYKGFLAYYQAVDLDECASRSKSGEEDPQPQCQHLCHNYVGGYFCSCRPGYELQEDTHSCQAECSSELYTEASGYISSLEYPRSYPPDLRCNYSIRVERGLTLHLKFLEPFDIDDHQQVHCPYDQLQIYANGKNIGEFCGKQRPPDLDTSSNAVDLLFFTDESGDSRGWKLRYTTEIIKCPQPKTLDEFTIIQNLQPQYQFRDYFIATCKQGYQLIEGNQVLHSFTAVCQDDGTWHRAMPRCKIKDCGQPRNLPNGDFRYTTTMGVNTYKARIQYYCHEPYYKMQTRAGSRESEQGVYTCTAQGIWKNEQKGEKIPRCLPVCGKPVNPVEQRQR
Procedure: The anti-Cl esterase ([…]) activity was determined according to the method of Okamura et al. [K. Okamura, M. Muramatsu and B. Fujii, Biochem. Biophys.

complement = experiment: Inhibition of complement mediated hemolysis; format: cell-based
Trypsin = target: T3, Trypsin (Bos taurus, UniProt P00760); experiment: Anti-trypsin activity (inhibition of TAME hydrolysis); format: biochemical; settings: read-out: ID50, trypsin
T3 sequence (P00760 24-246): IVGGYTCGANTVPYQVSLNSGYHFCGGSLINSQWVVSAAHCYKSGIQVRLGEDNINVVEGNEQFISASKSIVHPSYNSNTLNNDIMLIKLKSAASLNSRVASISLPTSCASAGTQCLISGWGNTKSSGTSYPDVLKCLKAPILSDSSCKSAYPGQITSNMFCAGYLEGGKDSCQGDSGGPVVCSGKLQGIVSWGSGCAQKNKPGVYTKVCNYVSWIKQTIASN
Outline: as §1

Thrombin = Thrombin (Homo sapiens, UniProt P00734); experiment: biochemical; settings: TAME hydrolysis; read-out: ID50, thrombin
Kallikrein = experiment: Anti-kallikrein activity (inhibition of TAME hydrolysis); format: biochemical; settings: read-out: ID50, kallikrein
Outline: as §1

Sequence of Plasmin (P00747 581-810 limits assumed, species assumed): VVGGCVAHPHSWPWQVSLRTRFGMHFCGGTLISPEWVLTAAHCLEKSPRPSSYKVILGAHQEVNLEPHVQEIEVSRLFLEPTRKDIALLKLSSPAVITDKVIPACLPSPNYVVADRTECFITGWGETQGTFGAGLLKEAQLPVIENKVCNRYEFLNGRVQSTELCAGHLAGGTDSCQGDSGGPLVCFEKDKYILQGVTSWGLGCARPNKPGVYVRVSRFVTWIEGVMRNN
Sequence of Plasmin (P00747 97-580 limits assumed, species assumed): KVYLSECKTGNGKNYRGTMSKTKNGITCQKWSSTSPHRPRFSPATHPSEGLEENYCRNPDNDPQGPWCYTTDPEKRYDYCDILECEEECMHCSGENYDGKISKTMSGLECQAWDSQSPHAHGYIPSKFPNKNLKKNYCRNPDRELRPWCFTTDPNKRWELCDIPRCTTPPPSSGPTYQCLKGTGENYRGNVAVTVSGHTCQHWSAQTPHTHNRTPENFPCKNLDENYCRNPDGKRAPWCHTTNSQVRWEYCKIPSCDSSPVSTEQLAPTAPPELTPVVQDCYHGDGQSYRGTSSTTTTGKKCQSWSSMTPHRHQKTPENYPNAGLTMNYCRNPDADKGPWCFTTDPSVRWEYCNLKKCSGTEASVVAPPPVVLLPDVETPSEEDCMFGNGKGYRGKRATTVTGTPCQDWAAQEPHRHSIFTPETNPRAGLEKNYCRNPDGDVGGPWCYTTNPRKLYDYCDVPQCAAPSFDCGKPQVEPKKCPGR

Row | IC50 (Cls) [nM] | IC50 (Plasmin) [nM] | IC50 (Clr) [nM] | IC50 (Trypsin) [nM] | IC50 (Thrombin) [nM] | IC50 (Kallikrein) [nM] | Compound | Inhibition of complement mediated hemolysis (%) (complement; compound at 1 × 10^-4) | Inhibition of complement mediated hemolysis (%) (complement; compound at 1 × 10^-5) | Inhibition of complement mediated hemolysis (%) (complement; compound at 1 × 10^-6) | Inhibition of complement mediated hemolysis (%) (complement; compound at 1 × 10^-7)
1 | 3000 | 7000 | > 10000 | 10000 | 3000 | > 10000 | N=C(N)c1ccc(OC(=O)c2ccccc2)c(S(=O)(=O)O)c1 [Compound 28, 5-amidino-2-benzoyloxybenzenesulfonic acid] | 79.1 | 25.0 | 22.8 | 23.8
2 | 4000 | > 10000 | > 10000 | > 10000 | > 10000 | > 10000 | N=C(N)c1ccc(OC(=O)[C@H]2CC[C@H](CN)CC2)c(C(=O)c2ccccc2)c1 [Compound 21] | 99.3 | 99.9 | 60.2 | 10.9
3 | 600 | 3000 | 4000 | 20 | 2000 | 300 | CCCCOc1ccc(C(=O)Oc2ccc(C(=N)N)cc2[N+](=O)[O-])cc1 [Compound 44] | 99.1 | 94.1 | 29.0 | 29.2
4 | 2000 | > 10000 | > 10000 | 3000 | 4000 | > 10000 | N=C(N)c1ccc(OC(=O)c2ccccc2)c(C(=O)O)c1 [Compound 24, 4-amidino-2-carboxyphenyl benzoate] | 88.2 | 29.1 | 11.0 | 16.7
5 | 300 | 400 | 300 | 20 | 200 | 1000 | CC(C)(C)c1ccc(C(=O)Oc2ccc(C(=N)N)cc2[N+](=O)[O-])cc1 [Compound 38] | 98.6 | 100 | 96.1 | 37.2
6 | 300 | 400 | 1000 | 200 | 80 | 300 | CC=CC=CC(=O)Oc1ccc(C(=N)N)cc1C(=O)c1ccccc1 [Compound 6] | 100 | 97.7 | 52.9 | 5.0

Further lines, the molecule ahead of its results:

Row | Compound | IC50 (Cls) [nM] | IC50 (Plasmin) [nM] | IC50 (Clr) [nM] | IC50 (Trypsin) [nM] | IC50 (Thrombin) [nM] | IC50 (Kallikrein) [nM] | Inhibition of complement mediated hemolysis (%) (complement; compound at 1 × 10^-4) | Inhibition of complement mediated hemolysis (%) (complement; compound at 1 × 10^-5) | Inhibition of complement mediated hemolysis (%) (complement; compound at 1 × 10^-6) | Inhibition of complement mediated hemolysis (%) (complement; compound at 1 × 10^-7)
7 | N=C(N)c1ccc(OC(=O)c2ccccc2)c(NC(=O)c2ccccc2)c1 [Compound 30, 4-amidino-2-benzoylaminophenyl benzoate] | 300 | 400 | 900 | 300 | 30 | 200 | 100 | 100 | 99.0 | 45.3
8 | COC(=O)c1cc(C(=N)N)ccc1OC(=O)[C@H]1CC[C@H](CNC(=O)OCc2ccccc2)CC1 [Compound 18, 4-amidino-2-methoxycarbonylphenyl trans-4-benzyloxycarbonylaminomethylcyclohexanecarboxylate] | 2000 | 500 | > 10000 | 3000 | 4000 | 1000 | 98.8 | 73.2 | 11.4 | 2.2
9 | N=C(N)c1ccc(OC(=O)c2ccc(O)cc2)c(C(=O)c2ccccc2)c1 [Compound 46, 4-amidino-2-benzoylphenyl 4-hydroxybenzoate] | 90 | 600 | 2000 | 50 | 40 | 300 | 100 | 98.0 | 67.6 | 5.0
10 | COC(=O)c1cc(C(=N)N)ccc1OC(=O)c1ccc(CN)cc1 [Compound 60] | 800 | 4000 | 3000 | 1000 | > 10000 | 2000 | 100 | 100 | 89.8 | 44.4
11 | CN(C)c1ccc(C(=O)Oc2ccc(C(=N)N)cc2C(=O)c2ccccc2)cc1 [Compound 66, 4-amidino-2-benzoylphenyl 4-dimethylaminobenzoate] | 40 | 400 | 3000 | 10 | 200 | 200 | 99.1 | 96.4 | 41.7 | 0
12 | COC(=O)c1cc(C(=N)N)ccc1OC(=O)[C@H]1CC[C@H](CN)CC1 [Compound 19, 4-amidino-2-methyoxycarbonylphenyl trans-4-aminomethylcyclohexanecarboxylate] | > 10000 | > 10000 | > 10000 | > 10000 | > 10000 | > 10000 | 99.2 | 83.4 | 15.0 | 5.0
13 | N=C(N)c1ccc(OC(=O)c2ccc(CN)cc2)c([N+](=O)[O-])c1 [Compound 62] | 600 | 3000 | 500 | 500 | 500000 | 2000 | 100 | 100 | 100 | 95.4
14 | COC(=O)c1cc(C(=N)N)ccc1OC(=O)c1ccc(CNC(=O)OCc2ccccc2)cc1 [Compound 59] | 300 | 70 | 2000 | 500 | 4000 | 700 | 100 | 100 | 76.0 | 15.6
